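All cell lines were grown in 96-well plates and treated with compound for 48 hours. At the GI50, growth is halved.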 Calls of active or inactive are those of the source. Rule as the data show it: active = GI50 up to about 1.1 µM and inactive = higher.
Key:
Assay in all cases: DTP human tumour cell line panel, 48 h
UACC-62 = system: UACC-62
SF-268 = system: SF-268
OVCAR-4 = system: OVCAR-4
HCT-15 = system: HCT-15
OVCAR-3 = system: OVCAR-3
CAKI-1 = system: CAKI-1
MOLT-4 = system: MOLT-4
RPMI-8226 = system: RPMI-8226
SNB-75 = system: SNB-75
IGROV-1 = system: IGROV-1
SK-MEL-28 = system: SK-MEL-28
HOP-92 = system: HOP-92
KM12 = system: KM12
EKVX = system: EKVX
A549 = system: A549
HL-60 = system: HL-60
SNB-19 = system: SNB-19
NCI-H23 = system: NCI-H23
HT-29 = system: HT-29
K562 = system: K562

SMILES	GI50 (UACC-62)	GI50 (SF-268)	GI50 (OVCAR-4)	GI50 (HCT-15)	GI50 (OVCAR-3)	GI50 (CAKI-1)	GI50 (MOLT-4)	GI50 (RPMI-8226)	GI50 (SNB-75)	GI50 (IGROV-1)	GI50 (SK-MEL-28)	GI50 (HOP-92)	GI50 (KM12)	GI50 (EKVX)	GI50 (A549)	GI50 (HL-60)	GI50 (SNB-19)	GI50 (NCI-H23)	GI50 (HT-29)	GI50 (K562)
O=C(Nc1ccc([N+](=O)[O-])cc1)Nn1cnnc1	46.3 µM (inactive)	42 µM (inactive)	14.3 µM (inactive)	45.6 µM	12.2 µM (inactive)	> 100 µM (inactive)	> 100 µM (inactive)	49.7 µM (inactive)	> 100 µM (inactive)	80 µM (inactive)	> 100 µM (inactive)	> 100 µM (inactive)	26.1 µM (inactive)	> 100 µM (inactive)	67.3 µM (inactive)	> 100 µM (inactive)	57 µM (inactive)	13 µM (inactive)	26.2 µM (inactive)	> 100 µM (inactive)
O=c1[nH]c(=O)n(CCOCP(=O)(O)O)nc1Br		> 100 µM (inactive)		> 100 µM	> 100 µM (inactive)	> 100 µM (inactive)	> 100 µM (inactive)	> 100 µM (inactive)	> 100 µM (inactive)	> 100 µM (inactive)	> 100 µM (inactive)	> 100 µM (inactive)	> 100 µM (inactive)	> 100 µM (inactive)	> 100 µM (inactive)	> 100 µM (inactive)	> 100 µM (inactive)	> 100 µM (inactive)	> 100 µM (inactive)	
Nc1cc(-c2ccccc2)nn1-c1nsc2ccccc12	> 100 µM (inactive)	58.9 µM (inactive)	> 100 µM (inactive)	95.3 µM	94.2 µM (inactive)		55.1 µM (inactive)	76.9 µM (inactive)	19.7 µM (inactive)	83.9 µM (inactive)	98.4 µM (inactive)	63.4 µM (inactive)	> 100 µM (inactive)	47.8 µM (inactive)	> 100 µM (inactive)	61.8 µM (inactive)	> 100 µM (inactive)	> 100 µM (inactive)	91.2 µM (inactive)	40.4 µM (inactive)
COc1ccc(-c2cc(-c3ccccc3)n(C3OCC(OC(C)=O)C(OC(C)=O)C3OC(C)=O)c(=S)c2C#N)cc1 (stereo not drawn)	53 µM (inactive)	> 100 µM (inactive)	> 100 µM (inactive)	> 100 µM	> 100 µM (inactive)	67.5 µM (inactive)	> 100 µM (inactive)	> 100 µM (inactive)	> 100 µM (inactive)	> 100 µM (inactive)	> 100 µM (inactive)	16 µM (inactive)	85.3 µM (inactive)	> 100 µM (inactive)	> 100 µM (inactive)	> 100 µM (inactive)	> 100 µM (inactive)	> 100 µM (inactive)	> 100 µM (inactive)	> 100 µM (inactive)
Cc1c(N2C(=O)/C(=C/C=C/c3ccccc3)N=C2c2ccccc2)c(=O)n(-c2ccccc2)n1C	16.4 µM (inactive)	22.6 µM (inactive)	17.8 µM (inactive)	5.45 µM	20.4 µM (inactive)	37.8 µM (inactive)	14.9 µM (inactive)	19.1 µM (inactive)	3.78 µM (inactive)	16.3 µM (inactive)		22.2 µM (inactive)	25.5 µM (inactive)	15.6 µM (inactive)	25.6 µM (inactive)	11.8 µM (inactive)		22 µM (inactive)	20.3 µM (inactive)	19 µM (inactive)
O=C(O)CCC(NC(=O)c1ccc(Nc2nc3cc(C(F)(F)F)ccc3nc2-c2ccccc2)cc1)C(=O)O (stereo not drawn)	> 60.1 µM (inactive)	> 100 µM (inactive)	31.3 µM (inactive)	60.3 µM	> 100 µM (inactive)		44.6 µM (inactive)	> 63.1 µM (inactive)	> 79.6 µM (inactive)	> 100 µM (inactive)	> 100 µM (inactive)	> 52.6 µM (inactive)	45.9 µM (inactive)	> 100 µM (inactive)	> 86.1 µM (inactive)	84.3 µM (inactive)	> 100 µM (inactive)	> 100 µM (inactive)	18.8 µM (inactive)	34.4 µM (inactive)
CCOC(=O)c1c(C)c2c(n1C)CCc1c[nH]nc1-2	> 100 µM (inactive)	> 100 µM (inactive)	> 100 µM (inactive)	> 100 µM	> 100 µM (inactive)	> 100 µM (inactive)	> 100 µM (inactive)	> 100 µM (inactive)	> 100 µM (inactive)	> 100 µM (inactive)	> 100 µM (inactive)	> 100 µM (inactive)	> 100 µM (inactive)	18 µM (inactive)	> 100 µM (inactive)	> 100 µM (inactive)	> 64.6 µM (inactive)	> 100 µM (inactive)	> 100 µM (inactive)	> 100 µM (inactive)
COc1ccc(Oc2ccccc2N)cc1	19.3 µM (inactive)	42.1 µM (inactive)	57.3 µM (inactive)	9.51 µM	26.4 µM (inactive)		18 µM (inactive)	31.8 µM (inactive)	23.7 µM (inactive)	36.6 µM (inactive)	28.2 µM (inactive)	96.2 µM (inactive)	20.9 µM (inactive)	93.8 µM (inactive)	38.1 µM (inactive)	21 µM (inactive)		43 µM (inactive)	39.9 µM (inactive)	29.5 µM (inactive)
CCC(=C(C#N)C#N)c1cc(OC)c(OC)c(OC)c1	> 100 µM (inactive)	> 100 µM (inactive)	> 100 µM (inactive)	> 100 µM	> 100 µM (inactive)	> 100 µM (inactive)	> 100 µM (inactive)	15.6 µM (inactive)		> 100 µM (inactive)	> 100 µM (inactive)	95.1 µM (inactive)	> 100 µM (inactive)	> 100 µM (inactive)	> 100 µM (inactive)	22.1 µM (inactive)	> 100 µM (inactive)	> 100 µM (inactive)	> 100 µM (inactive)	> 100 µM (inactive)
COc1cc2c(cc1OC)C(C(c1ccccc1)c1ccccc1)N(C)CC2 (stereo not drawn)	> 86.7 µM (inactive)	> 100 µM (inactive)	> 94 µM (inactive)	> 100 µM	> 84.7 µM (inactive)	0.617 µM (active)	38.3 µM (inactive)	36.6 µM (inactive)	49.1 µM (inactive)	70.6 µM (inactive)	> 79.3 µM (inactive)	29.2 µM (inactive)	> 100 µM (inactive)	> 100 µM (inactive)	> 100 µM (inactive)	40.6 µM (inactive)	> 100 µM (inactive)	> 100 µM (inactive)	35.1 µM (inactive)	40.8 µM (inactive)
Cc1ccc(OC(=O)N2C/C(=C\c3ccccc3)C(=O)/C(=C/c3ccccc3)C2)cc1	23.5 µM (inactive)	34.1 µM (inactive)	23.5 µM (inactive)	26.3 µM	25.6 µM (inactive)	49.9 µM (inactive)	4.07 µM (inactive)	0.403 µM (active)	23 µM (inactive)	40.7 µM (inactive)	25.7 µM (inactive)	> 100 µM (inactive)	16.2 µM (inactive)	> 100 µM (inactive)	> 69.5 µM (inactive)	3.84 µM (inactive)	43.5 µM (inactive)	26.4 µM (inactive)	4.93 µM (inactive)	3.94 µM (inactive)
CC1(C)Cc2c(C#N)c(N)c3c(c2CO1)C(=O)OC3=O	> 100 µM (inactive)	> 100 µM (inactive)	> 100 µM (inactive)	> 100 µM	> 100 µM (inactive)	> 100 µM (inactive)	> 100 µM (inactive)	> 100 µM (inactive)		> 100 µM (inactive)	> 100 µM (inactive)		> 100 µM (inactive)	> 100 µM (inactive)	> 100 µM (inactive)	> 100 µM (inactive)	> 100 µM (inactive)	> 100 µM (inactive)	> 100 µM (inactive)	> 100 µM (inactive)
O=c1c(C(c2ccc(C(c3c(O)oc4cc(O)ccc4c3=O)c3c(O)oc4cc(O)ccc4c3=O)cc2)c2c(O)oc3cc(O)ccc3c2=O)c(O)oc2cc(O)ccc12	> 100 µM (inactive)	> 100 µM (inactive)	93.1 µM (inactive)	> 100 µM	> 100 µM (inactive)	> 100 µM (inactive)	> 100 µM (inactive)		> 100 µM (inactive)	> 100 µM (inactive)	> 100 µM (inactive)	> 100 µM (inactive)		> 100 µM (inactive)	> 100 µM (inactive)	44.6 µM (inactive)		> 100 µM (inactive)	> 100 µM (inactive)	> 100 µM (inactive)
O=C1C=C2SC3C[C@@]24CC1[N+]1=c2c4c(c(O)c4c2=C(C=N4)CC1)N3	1.78 µM (inactive)	1.45 µM (inactive)	1.66 µM (inactive)	3.4 µM	0.938 µM (active)	2.62 µM (inactive)	1.53 µM (inactive)	2.08 µM (inactive)	4.61 µM (inactive)	2.44 µM (inactive)	1.94 µM (inactive)	> 100 µM (inactive)	2.13 µM (inactive)	2.27 µM (inactive)	6.17 µM (inactive)	1.46 µM (inactive)	5.31 µM (inactive)			2.44 µM (inactive)
Oc1cc(O)cc(/C=C/c2ccc(O)c(O)c2)c1 [PICEATANNOL]	3.53 µM (inactive)	8.59 µM (inactive)	15.5 µM (inactive)	5.9 µM	25.8 µM (inactive)	4.35 µM (inactive)	5.51 µM (inactive)	10.3 µM (inactive)	14.1 µM (inactive)	9.64 µM (inactive)	49.9 µM (inactive)	12.3 µM (inactive)	3.52 µM (inactive)	28.2 µM (inactive)	18.8 µM (inactive)	2.74 µM (inactive)	24.8 µM (inactive)	17.3 µM (inactive)	23.2 µM (inactive)	4.49 µM (inactive)
